Data as given in article PMC8286840, “Identifying SARS-CoV-2 antiviral compounds by screening for small molecule inhibitors of Nsp3 papain-like protease” (Biochemical Journal, 2021).
Structures can show the parent of a compound that is named as a salt. Where two headings read alike, the source gives them in different places.

What was measured:
[1] = target: T1, SARS-CoV-2 PLpro (nsp3 1564–1878) (Severe acute respiratory syndrome coronavirus 2, UniProt P0DTD1); assay: biochemical; parameters: FRET-quenched peptide (Pro3) cleavage by PLpro, 10 min pre-incubation, slope over 20 min, normalised to no-compound control; conditions: read-out: % of control remaining
[2] = target: T1, SARS-CoV-2 PLpro (nsp3 1564–1878); assay: biochemical; parameters: FRET-quenched peptide (Pro3) cleavage by PLpro, 10 min pre-incubation, slope over 20 min, normalised to no-compound control; conditions: read-out: % of control remaining; remark: listed apart in the source

## C#CCn1c(=O)c2c(ncn2C)n(C)c1=O [3,7-Dimethyl-I-propargylxanthine]
[1]; Well no.=498, high concentration screen
  remaining activity at 3.75 µM: 97.4%
[2]; Well no.=498, low concentration screen
  remaining activity at 1.25 µM: 99.2%

## C[C@H]1c2cccc(O)c2C(=O)C2=C(O)[C@]3(O)C(=O)C(C(N)=O)=C(O)[C@@H](N(C)C)[C@@H]3[C@@H](O)[C@@H]21 [Doxycycline]
[1]; Well no.=2022, high concentration screen
  remaining activity at 3.75 µM: 107%
[2]; Well no.=2022, low concentration screen
  remaining activity at 1.25 µM: 106%

## O=C(O)CSc1nnc(Br)n1-c1ccc(C2CC2)c2ccccc12 [Lesinurad]
[1]; Well no.=8158, high concentration screen
  remaining activity at 3.75 µM: 104%
[2]; Well no.=8158, low concentration screen
  remaining activity at 1.25 µM: 102%

## O=C1Nc2ccc(Cl)cc2[C@@](C#CC2CC2)(C(F)(F)F)O1 [Efavirenz]
[1]; Well no.=2248, high concentration screen
  remaining activity at 3.75 µM: 101%
[2]; Well no.=2248, low concentration screen
  remaining activity at 1.25 µM: 97.1%

## Cn1c(SCC(=O)N2CCC[C@H]2C(=O)Nc2ccccc2-c2ccccc2)nc2ccccc21 [TCS 1102]
[1]; Well no.=8429, high concentration screen
  remaining activity at 3.75 µM: 98.6%
[2]; Well no.=8429, low concentration screen
  remaining activity at 1.25 µM: 98.6%

## CN(C)CCN(C)CCc1ccc(Cl)c(Cl)c1 [BD-1047 (dihydrobromide)]
[1]; Well no.=7287, high concentration screen
  remaining activity at 3.75 µM: 97.8%
[2]; Well no.=7287, low concentration screen
  remaining activity at 1.25 µM: 95.4%

## CC[C@]1(O)C[C@@H]2CN(CCc3c([nH]c4ccccc34)[C@@](C(=O)OC)(c3cc4c(cc3OC)N(C)[C@H]3[C@@](O)(C(N)=O)[C@H](O)[C@]5(CC)C=CCN6CC[C@]43[C@@H]65)C2)C1 [Vindesine sulfate]
[1]; Well no.=2031, high concentration screen
  remaining activity at 3.75 µM: 103%
[2]; Well no.=2031, low concentration screen
  remaining activity at 1.25 µM: 102%

## Cn1cc(C2=C(c3cn(C4CCN(Cc5ccccn5)CC4)c4ccccc34)C(=O)NC2=O)c2ccccc21 [Enzastaurin (LY317615)]
[1]; Well no.=5003, high concentration screen
  remaining activity at 3.75 µM: 87.9%
[2]; Well no.=5003, low concentration screen
  remaining activity at 1.25 µM: 93%

## COC1=C[C@@H]2[C@@H]3Cc4ccc(OC)c(O)c4[C@]2(CCN3C)CC1=O [Sinomenine]
[1]; Well no.=3757, high concentration screen
  remaining activity at 3.75 µM: 98.8%
[2]; Well no.=3757, low concentration screen
  remaining activity at 1.25 µM: 97.3%

## N=C(N=C(N)N)N1CCOCC1 [Moroxydine.HCl]
[1]; Well no.=1539, high concentration screen
  remaining activity at 3.75 µM: 105%
[2]; Well no.=1539, low concentration screen
  remaining activity at 1.25 µM: 104%

## COc1ccc(-c2coc3cc(O)cc(O)c3c2=O)cc1 [Biochanin A]
[1]; Well no.=3519, high concentration screen
  remaining activity at 3.75 µM: 101%
[2]; Well no.=3519, low concentration screen
  remaining activity at 1.25 µM: 103%

## Oc1cc(O)c2c(c1)O[C@H](c1cc(O)c(O)c(O)c1)[C@H](O)C2 [Epigallocatechin]
[1]; Well no.=3277, high concentration screen
  remaining activity at 3.75 µM: 101%
[2]; Well no.=3277, low concentration screen
  remaining activity at 1.25 µM: 102%

## O=C1C(=O)N(Cc2ccc(Cl)c(Cl)c2)c2ccccc21 [Apoptosis Activator 2]
[1]; Well no.=5259, high concentration screen
  remaining activity at 3.75 µM: 95.7%
[2]; Well no.=5259, low concentration screen
  remaining activity at 1.25 µM: 98.8%

## C=C1[C@H](CO)[C@@H](O)C[C@@H]1n1cnc2c(=O)[nH]c(N)nc21 [Entecavir hydrate]
[1]; Well no.=5147, high concentration screen
  remaining activity at 3.75 µM: 95.5%
[2]; Well no.=5147, low concentration screen
  remaining activity at 1.25 µM: 93.9%

## NCCCCCC(=O)O [6-Aminohexanoic acid]
[1]; Well no.=6, high concentration screen
  remaining activity at 3.75 µM: 102%
[2]; Well no.=6, low concentration screen
  remaining activity at 1.25 µM: 101%

## Cc1nc(=O)c2cc(CN(C)c3ccc(C(=O)N[C@@H](CCC(=O)O)C(=O)O)s3)ccc2[nH]1 [Raltitrexed]
[1]; Well no.=6308, high concentration screen
  remaining activity at 3.75 µM: 99.3%
[1]; Well no.=7452, high concentration screen
  remaining activity at 3.75 µM: 99.7%
[2]; Well no.=6308, low concentration screen
  remaining activity at 1.25 µM: 98.3%
[2]; Well no.=7452, low concentration screen
  remaining activity at 1.25 µM: 104%

## Nc1ncnc2nc(-c3ccc(N4CCOCC4)nc3)cc(-c3cccc(Br)c3)c12 [Adenosine Kinase Inhibitor]
[1]; Well no.=2694, high concentration screen
  remaining activity at 3.75 µM: 103%
[2]; Well no.=2694, low concentration screen
  remaining activity at 1.25 µM: 102%

## NC(=O)CN1CC(O)CC1=O (centres unmarked) [Oxiracetam]
[1]; Well no.=1040, high concentration screen
  remaining activity at 3.75 µM: 97.5%
[2]; Well no.=1040, low concentration screen
  remaining activity at 1.25 µM: 91.2%

## COc1cc2ncc(-c3ccccc3)nc2cc1OC [AG 1296]
[1]; Well no.=2613, high concentration screen
  remaining activity at 3.75 µM: 90.5%
[2]; Well no.=2613, low concentration screen
  remaining activity at 1.25 µM: 91.6%

## NC(N)=Nc1ccc2[nH]c3c(c2c1)C[C@@]1(O)[C@H]2Cc4ccc(O)c5c4[C@@]1(CCN2CC1CC1)[C@H]3O5 [Guanidinyl-naltrindole di-trifluoroacetate]
[1]; Well no.=763, high concentration screen
  remaining activity at 3.75 µM: 99.9%
[2]; Well no.=763, low concentration screen
  remaining activity at 1.25 µM: 96%

## NCCS [Cysteamine hydrochloride]
[1]; Well no.=884, high concentration screen
  remaining activity at 3.75 µM: 103%
[2]; Well no.=884, low concentration screen
  remaining activity at 1.25 µM: 105%

## C[C@H]1O[C@@H](O[C@H]2[C@@H](O)C[C@H](O[C@H]3[C@@H](O)C[C@H](O[C@H]4CC[C@@]5(C)[C@H](CC[C@@H]6[C@@H]5CC[C@]5(C)[C@@H](C7=CC(=O)OC7)CC[C@]65O)C4)O[C@@H]3C)O[C@@H]2C)C[C@H](O)[C@@H]1O [Digitoxin]
[1]; Well no.=3463, high concentration screen
  remaining activity at 3.75 µM: 105%
[2]; Well no.=3463, low concentration screen
  remaining activity at 1.25 µM: 104%

## CN(CC(=O)O)C(=N)N [Creatine]
[1]; Well no.=7457, high concentration screen
  remaining activity at 3.75 µM: 103%
[2]; Well no.=7457, low concentration screen
  remaining activity at 1.25 µM: 101%

## O/N=C/c1cc[n+](C[n+]2ccc(/C=N/O)cc2)cc1 [MMB-4]
[1]
  remaining activity at 3.75 µM: 93.7%
[2]
  remaining activity at 1.25 µM: 95.4%

## CN(C)CC[C@H](CSc1ccccc1)Nc1ccc(S(=O)(=O)NC(=O)c2ccc(N3CCN(Cc4ccccc4-c4ccc(Cl)cc4)CC3)cc2)cc1[N+](=O)[O-] [ABT-737]
[1]; Well no.=2692, high concentration screen
  remaining activity at 3.75 µM: 101%
[1]; Well no.=6348, high concentration screen
  remaining activity at 3.75 µM: 96.5%
[1]; Well no.=8314, high concentration screen
  remaining activity at 3.75 µM: 97.8%
[2]; Well no.=2692, low concentration screen
  remaining activity at 1.25 µM: 102%
[2]; Well no.=6348, low concentration screen
  remaining activity at 1.25 µM: 99.7%
[2]; Well no.=8314, low concentration screen
  remaining activity at 1.25 µM: 98.5%

## O=C(/C=C/c1ccc(O)c(O)c1)OCCc1ccccc1 [Caffeic acid phenethyl ester]
[1]; Well no.=140, high concentration screen
  remaining activity at 3.75 µM: 104%
[2]; Well no.=140, low concentration screen
  remaining activity at 1.25 µM: 103%

## CC[C@@H](N)C(=O)O [D(-)-2-Aminobutyric acid]
[1]; Well no.=7701, high concentration screen
  remaining activity at 3.75 µM: 92.5%
[2]; Well no.=7701, low concentration screen
  remaining activity at 1.25 µM: 97.2%

## COc1cc(-c2oc3cc(O)ccc3c(=O)c2O)ccc1O [Geraldol]
[1]; Well no.=3512, high concentration screen
  remaining activity at 3.75 µM: 102%
[2]; Well no.=3512, low concentration screen
  remaining activity at 1.25 µM: 98.4%

## Cc1cccc(-c2nn3c(c2-c2ccnc4ccc(C(N)=O)cc24)CCC3)n1 [LY2157299]
[1]; Well no.=4856, high concentration screen
  remaining activity at 3.75 µM: 98.9%
[2]; Well no.=4856, low concentration screen
  remaining activity at 1.25 µM: 99.9%

## Nc1nc(Nc2ccc(S(N)(=O)=O)cc2)nn1C(=O)c1c(F)cccc1F [Aurora Kinase/Cdk Inhibitor]
[1]; Well no.=2356, high concentration screen
  remaining activity at 3.75 µM: 100%
[2]; Well no.=2356, low concentration screen
  remaining activity at 1.25 µM: 98.5%

## CC[C@@]1(O)C(=O)OCc2c1cc1n(c2=O)Cc2cc3c(CN(C)C)c(O)ccc3nc2-1 [Topotecan hydrochloride hydrate]
[1]; Well no.=6019, high concentration screen
  remaining activity at 3.75 µM: 99%
[2]; Well no.=6019, low concentration screen
  remaining activity at 1.25 µM: 103%

## COc1ccc(CC(=O)O)cc1 [2-(4-Methoxyphenyl)acetic acid]
[1]; Well no.=6451, high concentration screen
  remaining activity at 3.75 µM: 104%
[2]; Well no.=6451, low concentration screen
  remaining activity at 1.25 µM: 100%

## CCCCCCCC/C=C\CCCCCCCCOC[C@H](COP(=O)([O-])OCC[N+](C)(C)C)OC(C)=O [PAF C18:1]
[1]; Well no.=4453, high concentration screen
  remaining activity at 3.75 µM: 99.9%
[2]; Well no.=4453, low concentration screen
  remaining activity at 1.25 µM: 99.9%

## CCOC(=O)[C@H](CCc1ccccc1)N[C@@H](C)C(=O)N1C(=O)N(C)C[C@H]1C(=O)O [Imidapril (hydrochloride)]
[1]; Well no.=7686, high concentration screen
  remaining activity at 3.75 µM: 98%
[2]; Well no.=7686, low concentration screen
  remaining activity at 1.25 µM: 99.8%
